Assay: recombinant barcode read abundance after kanamycin selection (control-corrected) (log10(CPM+1)); higher = more efficient recombination; sequences stand for … in AGTGCAGAGAAAATCGGCCAGTTTTCTCTGCCTGCAGTCCGCATGCCGT…AGATTTATGCAGCGGACTGCCTTTCTCCCAAAGTGATAAACCGGACAGTATCATGGACCGGTTTTCCCGGTAATCCGTATTTGCAAGGTTGGTTTCACT; site = the 11-nt target
Method in brief: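 Recombination efficiency draws on barcodes counted at recombinant junctions in a pooled E. coli screen of targets paired with IS621 bridge RNA target-binding loops. The counts were converted to counts per million, averaged and corrected against the chloramphenicol/ampicillin LB agar control, then reported as log10(CPM+1). Selection plates held chloramphenicol/ampicillin/kanamycin with 0.1 mM IPTG, with two replicates per condition.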
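Also: IS621 recombinase and bridge RNA in Escherichia coli cells.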

“AGTTGTCCTTGGGTTCTAACCTGTTGCAT (site AGTTGTCCTAG)” and “AGTTGTCCTTGGGTTCTAACCTGTTGCAT (site AGTTGTCCTAT)” are within 0.2 log units of each other in “recombinant barcode read abundance (log10)” value: 0.0326 for the first, 0.219 for the second.

“AGTTGTCCTTGGGTTCTAACCTGTTGCTT (site AGTTGTCCTAA)” and “AGTTGTCCTTGGGTTCTAACCTGTTGCTT (site AGTTGTCCTAC)” are within 0.2 log units of each other in “recombinant barcode read abundance (log10)” value: 0.126 for the first, 0.0653 for the second.

“AGTTGTCCTTGGGTTCTAACCTGTTGCTT (site AGTTGTCCTAG)” and “AGTTGTCCTTGGGTTCTAACCTGTTGCTT (site AGTTGTCCTAT)” are within 0.2 log units of each other in “recombinant barcode read abundance (log10)” value: 0.0387 for the first, 0.0416 for the second.

“AGTTTCACTTGGGTTCTAACCTGTTGCCT (site AGTTACACTAG)” and “AGTTTCACTTGGGTTCTAACCTGTTGCCT (site AGTTCCACTAG)” are within 0.2 log units of each other in “recombinant barcode read abundance (log10)” value: 0.11 for the first, 0.0621 for the second.

“AGTTTCACTTGGGTTCTAACCTGTTGCCT (site AGTTGCACTAG)” and “AGTTTCACTTGGGTTCTAACCTGTTGCCT (site AGTTTCACTAG)” are within 0.2 log units of each other in “recombinant barcode read abundance (log10)” value: 0.0233 for the first, 0.0755 for the second.

Going from “ATAAAGACTTGGGTTCTAACCTGTTGCCT (site ATAAAGACTAG)” to “ATAAAGACTTGGGTTCTAACCTGTTGCCT (site ATCAAGACTAG)”, the “recombinant barcode read abundance (log10)” value falls from 1.96 to 0.181.

Compared with “ATAAAGACTTGGGTTCTAACCTGTTGCCT (site ATGAAGACTAG)”, “ATAAAGACTTGGGTTCTAACCTGTTGCCT (site ATTAAGACTAG)” is higher in “recombinant barcode read abundance (log10)” value: 0.212 for the first, 0.586 for the second.

Compared with “ATAAATGCTTGGGTTCTAACCTGTTGCCT (site ATAAATGCTAG)”, “ATAAATGCTTGGGTTCTAACCTGTTGCCT (site ATAAGGGCTAG)” is lower in “recombinant barcode read abundance (log10)” value: 1.34 for the first, 0.0428 for the second.

First: ATAACAGCTTGGGTTCTAACCTGTTGCCT (site ATAAAAGCTAG)
Second: ATAACAGCTTGGGTTCTAACCTGTTGCCT (site ATAACAGCTAG)
The “recombinant barcode read abundance (log10)” value of the first is lower: 0.224 for the first, 1.43 for the second.

“ATAACAGCTTGGGTTCTAACCTGTTGCCT (site ATAAGAGCTAG)” and “ATAACAGCTTGGGTTCTAACCTGTTGCCT (site ATAATAGCTAG)” are within 0.2 log units of each other in “recombinant barcode read abundance (log10)” value: 0.279 for the first, 0.0968 for the second.

Going from “ATAACGGCTTGGGTTCTAACCTGTTGCCT (site ATAACGGCTAG)” to “ATAACGGCTTGGGTTCTAACCTGTTGCCT (site GACGGACCTTA)”, the “recombinant barcode read abundance (log10)” value falls from 0.434 to 0.0648.

Going from “ATAAGTGCTTGGGTTCTAACCTGTTGCCA (site ATAAGTGCTTG)” to “ATAAGTGCTTGGGTTCTAACCTGTTGCCA (site GTGAGTGCTTG)”, the “recombinant barcode read abundance (log10)” value falls from 1.15 to 0.0783.

Compared with “ATAATAGCTTGGGTTCTAACCTGTTGCAT (site ATAATAGCTAT)”, “ATAATAGCTTGGGTTCTAACCTGTTGCAT (site GTAATAGCTAT)” is lower in “recombinant barcode read abundance (log10)” value: 2.02 for the first, 0.0687 for the second.

Going from “ATACGGACTTGGGTTCTAACCTGTTGCTA (site ATAAGGACTTA)” to “ATACGGACTTGGGTTCTAACCTGTTGCTA (site ATACGGACTTA)”, the “recombinant barcode read abundance (log10)” value rises from 0.0991 to 2.04.

“ATACGGACTTGGGTTCTAACCTGTTGCTA (site ATAGGGACTTA)” and “ATACGGACTTGGGTTCTAACCTGTTGCTA (site ATATGGACTTA)” are within 0.2 log units of each other in “recombinant barcode read abundance (log10)” value: 0.186 for the first, 0.0991 for the second.

Going from “ATACTCTCTTGGGTTCTAACCTGTTGCCT (site AGACTCTCTAG)” to “ATACTCTCTTGGGTTCTAACCTGTTGCCT (site ATACTCTCTAG)”, the “recombinant barcode read abundance (log10)” value rises from 0 to 2.43.

First: ATAGAGTCTTGGGTTCTAACCTGTTGCCG (site ATAGAGTCTCG)
Second: ATAGAGTCTTGGGTTCTAACCTGTTGCCG (site GCTCCTCCTAT)
The “recombinant barcode read abundance (log10)” value of the first is higher: 1.95 for the first, 0.173 for the second.

Going from “ATAGGTACTTGGGTTCTAACCTGTTGCTT (site ATAGGTACTAA)” to “ATAGGTACTTGGGTTCTAACCTGTTGCTT (site CTAGGTACTAA)”, the “recombinant barcode read abundance (log10)” value falls from 1.65 to 0.534.

Compared with “ATAGGTCCTTGGGTTCTAACCTGTTGCTG (site ATAGGTCCTCA)”, “ATAGGTCCTTGGGTTCTAACCTGTTGCTG (site ATGGGTCCTCG)” is lower in “recombinant barcode read abundance (log10)” value: 2.91 for the first, 0.0247 for the second.

First: ATATGAGCTTGGGTTCTAACCTGTTGCCA (site ATATGAGCTTG)
Second: ATATGAGCTTGGGTTCTAACCTGTTGCCA (site TTATGAGCTCG)
The “recombinant barcode read abundance (log10)” value of the first is higher: 0.884 for the first, 0.0938 for the second.

First: ATATGTACTTGGGTTCTAACCTGTTGCCG (site ATATGTACTCG)
Second: ATATGTACTTGGGTTCTAACCTGTTGCCG (site ATATGTACTTG)
The “recombinant barcode read abundance (log10)” value of the first is higher: 1.07 for the first, 0.167 for the second.

With “ATATGTCCTTGGGTTCTAACCTGTTGCAG (site ATAGGACCTCT)” the “recombinant barcode read abundance (log10)” value was 0.
